Data on 6 compounds can be found in patent US11976137B2, “Compounds for use as apelin receptor antagonists” (Cambridge Enterprise Limited, priority 2018, dated 2024).

A word on the pKi: it is −log10 of the Ki, conventionally taken in molar units.

pKi: −log10 of the molar value. Several values for one entry are separate records, joined by “and”; a condition that tells them apart may be missing. Equal entries are not always repeated. Where two headings read alike, the source gives them in different places. Positions of bridges follow the written chain, without caps; N, C: chain ends. Non-standard residues stand in square brackets, D forms with d. Residues, ends and D or L forms follow the SMILES beside them. *: point of attachment. Phe(3,4,5-F3) = N[C@@H](Cc1cc(F)c(F)c(F)c1)C(=O)O; Myristoyl = CCCCCCCCCCCCCC(=O)*; Nle = CCCC[C@H](N)C(=O)O; Abu = CC[C@H](N)C(=O)O; Aib = CC(C)(N)C(=O)O

The test system of test [1] is glioblastoma. The settings on record: ref. [60], cited from earlier work; for anti-tumor / anti-cancer effects in glioblastoma: models of glioblastoma.
The subject of test [2] is human forearm. Description: Human forearm studies. The test is classed as in vivo.
Test [3] has as its target T1, human apelin receptor (Homo sapiens, UniProt P35414).
T1 sequence (P35414 1-380): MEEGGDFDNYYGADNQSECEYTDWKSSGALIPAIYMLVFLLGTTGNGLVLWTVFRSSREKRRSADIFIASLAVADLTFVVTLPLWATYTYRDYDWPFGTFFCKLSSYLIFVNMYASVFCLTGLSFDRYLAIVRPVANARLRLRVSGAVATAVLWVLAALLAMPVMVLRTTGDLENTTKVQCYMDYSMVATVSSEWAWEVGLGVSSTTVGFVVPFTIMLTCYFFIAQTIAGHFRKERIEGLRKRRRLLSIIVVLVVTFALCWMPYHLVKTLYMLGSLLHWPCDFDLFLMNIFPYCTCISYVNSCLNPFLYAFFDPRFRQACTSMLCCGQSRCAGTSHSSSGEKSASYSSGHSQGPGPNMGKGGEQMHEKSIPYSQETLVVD
The test can be described thus: Competition binding in homogenate of human left ventricle (HLV). Here is the method:
Equilibrium was broken by centrifugation (20,000 g for 10 min, 4° C.). Pellets were washed with Tris-HCl buffer (50 mmol/L, pH 7.4, 4° C.), re-centrifuged and bound radioactivity in the final pellets counted. Data from triplicate experiments were analysed using the iterative non-linear curve fitting programs EBDA and LIGAND (KELL package, Biosoft, UK) or GraphPad Prism 6 to derive values of affinity (expressed as either the equilibrium dissociation constant KD or the negative log10 of the dissociation constant, pKi±sem) and receptor density (BMAX±sem in fmoles bound per mg protein).

The target in test [4] is T1, human apelin receptor. Description: DRx β-arrestin assay (PathHunter eXpress AGTRL1 CHO-K1). The test is classed as cell-based. Further details: host or cells: CHO-K1. The settings on record: for Kb: DRx β-Arrestin pA2; for bias between cAMP and β-arrestin pathway inhibition: comparison of β-arrestin and cAMP pA2 of Table 3. On the procedure:
(§1) cAMP (cAMP Hunter™ eXpress AGTRL1 CHO-K1 GPCR Assay, DiscoverX Corporation, Ltd. Birmingham, UK) and β-arrestin (PathHunter® eXpress AGTRL1 CHO-K1 β-Arrestin GPCR Assay, DiscoverX Corporation, Ltd. Birmingham, UK) assays were performed according to the manufacturer's instructions. The cAMP assay measures the canonical signalling pathway through the G-protein. The β-arrestin assay measures the alternative signalling pathway and receptor internalisation.
For recruitment of β-arrestin, CHO-K1 cells artificially expressing the human apelin receptor were seeded in Cell Plating medium into 96-well plates and incubated for 48 hours at 37° C. in 5% CO2. Concentration response curves were constructed to test peptides (1 pmol/L-30 μmol/L) which were diluted in Cell Plating medium and added to the cells for 90 minutes at 37° C. If no response was obtained then test peptides were investigated as antagonists. […] Detection reagents were then added for a 2-hour incubation at room temperature. […] If no agonist response was obtained, test compounds were investigated for antagonist activity by repeating [Pyr]apelin-13 concentration response curves in the absence and presence of a single concentration (1-30 μmol/L of test peptide). Data were analysed as described for the cAMP assay using the Gaddum/Schild EC50 function in GraphPad Prism 6 to determine values of pA2.

Test [5] concerns the target T1, human apelin receptor. The test can be described thus: Cerep radioligand binding assay on CHO-K1 cells expressing the human apelin receptor. Also noted: host or cells: CHO-K1. Here is the method:
Binding assays were performed by Cerep (Celle L'Evescault, France) on Chinese Hamster Ovary (CHO-K1) cells expressing the human apelin receptor. […] The results were expressed as a percent of control specific binding ((measured specific binding/control specific binding)×100) and as a percent inhibition of control specific binding (100−((measured specific binding/control specific binding)×100)) obtained in the presence of the test compounds. […] The inhibition constants (Ki) were calculated using the Cheng Prusoff equation (Ki=IC50/(1+(L/KD)), where L=concentration of radioligand in the assay, and KD=equilibrium dissociation constant of the radioligand for the receptor).

The target in test [6] is T1, human apelin receptor. Description: DRx cAMP assay (cAMP Hunter eXpress AGTRL1 CHO-K1), forskolin-induced cAMP accumulation. The test is classed as cell-based. Also noted: host or cells: CHO-K1. As to conditions: for Kb: DRx cAMP pA2, antagonism of [Pyr1]apelin-13 inhibition of forskolin-stimulated cAMP; for DRx cAMP pA2: antagonism of [Pyr1]apelin-13 inhibition of forskolin-stimulated cAMP. Here is the method: Antagonist activity at the apelin receptor was measured in two assays.
as §1
Cells were then incubated with a mixture of Lysis Buffer, cAMP Buffer D and Detection Reagents for 1 hour at room temperature, followed by a 3 hour incubation with cAMP Reagent A at room temperature. Chemiluminescence was read using the LumiLITE™ Microplate Reader (DiscoverX). Concentration-response data for agonists, measured in relative light units (RLU), were analysed using a 4 parameter logistic equation in GraphPad Prism 6 (La Jolla, CA, USA) to determine values of potency expressed as the pD2 value (negative logo of the EC50 (where EC50 is the concentration producing half maximal response)), and maximum response (EMAX). Mean data from replicate experiments were normalised as percentage inhibition of forskolin-stimulated cAMP production.
Background: cAMP levels reflect the balance of adenylyl cyclase and phosphodiesterase activity.

The test system of test [7] is endothelium-denuded saphenous vein. The settings on record: human tissue, ref. [15]; cited from earlier work.
Test [8] has as its target T1, human apelin receptor. The settings on record: human cardiac tissue, ref. [15]; cited from earlier work.
Setting [9] is: [Glp65,Nle75,Tyr77][125I]apelin-13, read-out: Ki (binding affinity at the apelin receptor, Cerep).

Consider `CC(C)C[C@@H]1NC(=O)[C@H](CCCNC(=N)N)NC(=O)[C@@H]2CCCN2C(=O)[C@H](CCCNC(=N)N)NC(=O)[C@@H](NC(=O)[C@H](Cc2c[nH]cn2)NC(=O)[C@H](CCCCN)NC(=O)[C@@H]2CSSC[C@H](N)C(=O)N[C@@H](CCCNC(=N)N)C(=O)N3CCC[C@H]3C(=O)N[C@@H](CCCNC(=N)N)C(=O)N[C@@H](CC(C)C)C(=O)N2)CSSC[C@@H](C(=O)O)NC1=O` [MM54, cyclo(1-6)CRPRLC-KH-cyclo(9-14)CRPRLC] (H-CRPRLCKHCRPRLC-OH; disulfide 1-6, 9-14; N-terminus and C-terminus assumed), for which the “combination with the anti-cancer compound tomozolomide” value in test [1] (model of glioblastoma) is on record as “synergistic properties”. Moreover, the “anti-tumor / anti-cancer effects in glioblastoma” value in test [1] is on record as “anti-tumor properties”. Also, the “functional activity in human forearm studies” value in test [2] is listed as “functional agonist activity indicated by vasodilation”. Besides, the pKi in test [3] (HLV pKi) is 6.56 and 6.45. Also, in test [4], the “DRx β-Arrestin pA2” value is on record as 6.63; the Kb was 117 nM and 234 nM. Also, in test [5] (Ki (binding affinity at the apelin receptor, Cerep), [Glp65,Nle75,Tyr77][125I]apelin-13), the pKi was 7.09.

Take `CCCC[C@H](NC(=O)[C@H](CCCNC(=N)N)NC(=O)C(C)(C)NC(=O)[C@H](CCCNC(=N)N)NC(=O)[C@H](CS)NC(=O)[C@H](Cc1c[nH]cn1)NC(=O)[C@H](CCCCN)NC(=O)[C@H](CS)NC(=O)[C@H](CCCC)NC(=O)[C@H](CCCNC(=N)N)NC(=O)[C@@H]1CCCN1C(=O)[C@H](CCCNC(=N)N)NC(=O)[C@@H](N)CS)C(=O)N[C@@H](Cc1cc(F)c(F)c(F)c1)C(=O)O` [MM193, CRPR-Nle-CKHCR-Aib-R-Nle-(3,4,5-trifluorophenylalanine)] (H-CRPR[Nle]CKHCR[Aib]R[Nle][Phe(3,4,5-F3)]-OH): the “antagonism of [pyr1]apelin-13 inhibition of forskolin stimulated cAMP accumulation” value in test [6] (1 μM, FIG. 1b) is “antagonised by addition of MM193 in a competitive manner”. For the same compound, in test [6], the Kb is 42.7 nM and 77.6 nM; the “DRx cAMP pA2” value was found to be 7.37. For the same compound, in test [1], the “anti-tumor / anti-cancer effects in glioblastoma” value is on record as “significant anti-cancer effects”. Besides, in test [3] (read-out: HLV pKi (converted)), the Ki was 759 nM. In test [4], the “DRx β-Arrestin pA2” value is 7.68 and the Kb was 20.9 nM. Moreover, the “antagonism of [pyr1]apelin-13 mediated β-arrestin recruitment” value in test [4] (1 μM, FIG. 1a) is given as “antagonised by addition of MM193 in a competitive manner”. Further, the “DRx β-Arrestin pA2” value in test [4] (cho-k1 cells, 90 min) is “pA2 = 7.68”. Besides, in test [5] (setting [9]), the pKi was 7.72.

For the compound `CCCC[C@H](NC(=O)[C@H](CCCNC(=N)N)NC(=O)C(C)(C)NC(=O)[C@H](CCCNC(=N)N)NC(=O)[C@H](CC)NC(=O)[C@H](Cc1c[nH]cn1)NC(=O)[C@H](CCCCN)NC(=O)[C@H](CS)NC(=O)[C@H](CCCC)NC(=O)[C@H](CCCNC(=N)N)NC(=O)[C@@H]1CCCN1C(=O)[C@H](CCCNC(=N)N)NC(=O)[C@@H](N)CS)C(=O)N[C@@H](Cc1cc(F)c(F)c(F)c1)C(=O)O` [MM299, CRPR-Nle-CKH-Abu-R-Aib-R-Nle-(3,4,5-trifluorophenylalanine)] (H-CRPR[Nle]CKH[Abu]R[Aib]R[Nle][Phe(3,4,5-F3)]-OH), the Kb in test [6] is 47.9 nM and 112 nM; in test [4] it was 7.94 nM and 2.95 nM. Besides, the pKi in test [5] (setting [9]) was 8.21.

Take `CCCCCCCCCCCCCC(=O)N[C@@H](CS)C(=O)N[C@@H](CCCNC(=N)N)C(=O)N1CCC[C@H]1C(=O)N[C@@H](CCCNC(=N)N)C(=O)N[C@@H](CCCC)C(=O)N[C@@H](CS)C(=O)N[C@@H](CCCCN)C(=O)N[C@@H](Cc1c[nH]cn1)C(=O)N[C@@H](CS)C(=O)N[C@@H](CCCNC(=N)N)C(=O)NC(C)(C)C(=O)N[C@@H](CCCNC(=N)N)C(=O)N[C@@H](CCCC)C(=O)N[C@@H](Cc1cc(F)c(F)c(F)c1)C(=O)O` [MM300, Myristoyl-CRPR-Nle-CKHCR-Aib-R-Nle-(3,4,5-trifluorophenylalanine)] (Myristoyl-CRPR[Nle]CKHCR[Aib]R[Nle][Phe(3,4,5-F3)]-OH; C-terminus assumed): the “DRx cAMP pA2” value in test [6] is reported as 9.66. Besides, in test [4], the “DRx β-Arrestin pA2” value came out at 8.96; the Kb is 1.1 nM and 3.16 nM; the “bias between cAMP and β-arrestin pathway inhibition” value is reported as “bias towards either C-AMP”. Further, in test [5] (setting [9]), the negative logarithm of the Ki (pKi) was 7.89.

With `CCCC[C@H](NC(=O)[C@H](CCCNC(=N)N)NC(=O)C(C)(C)NC(=O)[C@H](CCCNC(=N)N)NC(=O)[C@H](CS)NC(=O)[C@H](CCCCN)NC(=O)[C@H](Cc1c[nH]cn1)NC(=O)[C@H](CS)NC(=O)[C@H](CCCC)NC(=O)[C@H](CCCNC(=N)N)NC(=O)[C@@H]1CCCN1C(=O)[C@H](CCCNC(=N)N)NC(=O)[C@@H](N)CS)C(=O)N[C@@H](Cc1cc(F)c(F)c(F)c1)C(=O)O` [MM302, CRPR-Nle-CHKCR-Aib-R-Nle-(3,4,5-trifluorophenylalanine)] (H-CRPR[Nle]CHKCR[Aib]R[Nle][Phe(3,4,5-F3)]-OH; N-terminus and C-terminus assumed), the Kb in test [6] was 20 nM and 55 nM. In test [4], the Kb is 2.69 nM and 2.29 nM; the “bias between cAMP and β-arrestin pathway inhibition” value is on record as “almost a log unit of bias towards inhibition of the β-arrestin pathway”. In addition, the pKi in test [5] (setting [9]) is 7.77.

As to “Apelin-13(F13A): apelin-13 analogue reported as a functional antagonist, may act as an apelin receptor agonist in vitro”, in test [7], the “constriction of endothelium-denuded saphenous vein” value is “effectively constricts”. The “competition for binding with [125I]-(Pyr1)apelin-13 in the left ventricle” value in test [8] was “competes for binding”.
